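Dose response: 5 concentrations. Exposure: 48 h. Format: 96-well plates. Endpoint: linear interpolation; highest concentration if not reached. GI50 = concentration required for 50% inhibition of growth. TGI denotes the concentration required for complete inhibition of growth.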

The values that follow come from PubChem BioAssay (NCI).

Some test systems named below: HS 578T breast; HCT-15 colon; UO-31 renal; K-562 leukemia; OVCAR-5 ovarian; SF-295 CNS; KM12 colon; RXF 393 renal; NCI-H226 lung; MALME-3M melanoma.
Holding throughout (experiment): NCI anticancer screen, dose series, 48 h

Regarding `COc1cc2c3c(n(CCCCNC(=O)OC(C)(C)C)c(=O)c2cc1OC)-c1cc2c(cc1C3=O)OCO2`, the GI50 is 59 µM in the assay on HS 578T breast; above 100 µM in the assay with HCT-15 colon; above 100 µM in the assay with UO-31 renal; above 100 µM in the assay with K-562 leukemia; above 100 µM with OVCAR-5 ovarian; 16.1 µM in the assay on SF-295 CNS. For the same molecule, the GI50 was above 100 µM in the assay on KM12 colon, 17.5 µM in the assay with RXF 393 renal, above 100 µM in the assay with NCI-H226 lung and above 100 µM in the assay on MALME-3M melanoma. Also, the TGI in the assay on HS 578T breast, with HCT-15 colon, with UO-31 renal, in the assay with K-562 leukemia, with OVCAR-5 ovarian and in the assay on SF-295 CNS was above 100 µM in each case. The TGI with KM12 colon was above 100 µM; in the assay on RXF 393 renal, 62.1 µM; in the assay with NCI-H226 lung, above 100 µM; in the assay on MALME-3M melanoma, above 100 µM.
Turning to `O=C(O)/C=C/c1ccc[c]([Sb](=[O])([OH])[OH])c1`, the GI50 with HS 578T breast, in the assay with HCT-15 colon, in the assay on UO-31 renal, in the assay on K-562 leukemia, with OVCAR-5 ovarian and with SF-295 CNS was above 100 µM each time. In addition, the GI50 in the assay on KM12 colon, in the assay on RXF 393 renal, in the assay on NCI-H226 lung and with MALME-3M melanoma was above 100 µM throughout. Moreover, the TGI with HS 578T breast, with HCT-15 colon, in the assay on UO-31 renal, in the assay with K-562 leukemia, in the assay on OVCAR-5 ovarian and in the assay on SF-295 CNS was above 100 µM each time. Moreover, the TGI in the assay on KM12 colon, in the assay on RXF 393 renal, with NCI-H226 lung and with MALME-3M melanoma was above 100 µM each time.
For the molecule `CN(C)C[C@H]1CCn2c(c(C3=C(c4cn(C)c5ccccc45)C(=O)NC3=O)c3ccccc32)C1`, the GI50 in the assay on HS 578T breast is 2.78 µM; in the assay on HCT-15 colon, 4.51 µM; in the assay with UO-31 renal, 3.45 µM; in the assay with K-562 leukemia it was 5.29 µM; with OVCAR-5 ovarian, 5.35 µM; with SF-295 CNS it was 5.21 µM. The GI50 is 4.57 µM in the assay on KM12 colon, 3.67 µM with RXF 393 renal, 5.13 µM in the assay with NCI-H226 lung and 4.24 µM with MALME-3M melanoma. Also, the TGI in the assay on HS 578T breast was found to be 10.1 µM; in the assay with HCT-15 colon, 14.8 µM; in the assay with UO-31 renal it was 7.31 µM; in the assay with K-562 leukemia it was 10.8 µM; with OVCAR-5 ovarian, 17 µM; in the assay on SF-295 CNS, 11.3 µM. Moreover, the TGI in the assay with KM12 colon was 8.66 µM; with RXF 393 renal it was 7.18 µM; with NCI-H226 lung it was 14.1 µM; in the assay on MALME-3M melanoma, 8.56 µM.
As to `CC/C=C\C[C@H](O)C/C=C1/C(=O)C=C[C@@H]1C/C=C\CCCC(=O)OC(C)C`, the GI50 is 5.21 µM in the assay with HS 578T breast; 0.674 µM in the assay on HCT-15 colon; 1.84 µM in the assay with UO-31 renal; 0.391 µM in the assay on K-562 leukemia; 3.07 µM in the assay with OVCAR-5 ovarian; 2.91 µM in the assay with SF-295 CNS. In addition, the GI50 in the assay with KM12 colon was 1.36 µM; in the assay with RXF 393 renal, 1.76 µM; with NCI-H226 lung, 2.58 µM; in the assay on MALME-3M melanoma, 1.64 µM. For the same molecule, the TGI came to 41.2 µM in the assay with HS 578T breast; 2.75 µM in the assay with HCT-15 colon; 3.84 µM with UO-31 renal; 20.7 µM with K-562 leukemia; 8.41 µM in the assay with OVCAR-5 ovarian; 8.34 µM in the assay with SF-295 CNS. In addition, the TGI was found to be 3.08 µM in the assay with KM12 colon, 3.27 µM in the assay on RXF 393 renal, 6.08 µM in the assay on NCI-H226 lung and 3.75 µM in the assay with MALME-3M melanoma.
`C=C1C(=O)O[C@H]2[C@H]1CC/C(COC(=O)c1cn(C)c3ccccc13)=C\CC[C@@]1(C)O[C@@H]21`: the GI50 is 2.39 µM with HS 578T breast; 0.539 µM with HCT-15 colon; 0.775 µM in the assay with UO-31 renal; 0.4 µM in the assay on K-562 leukemia; 1.56 µM in the assay with OVCAR-5 ovarian; 2.41 µM in the assay with SF-295 CNS. Further, the GI50 was 1.83 µM in the assay on KM12 colon, 0.589 µM in the assay with RXF 393 renal, 1.48 µM in the assay on NCI-H226 lung and 1.62 µM with MALME-3M melanoma. Also, the TGI in the assay on HS 578T breast was 9.47 µM; in the assay with HCT-15 colon, 2.26 µM; in the assay with UO-31 renal, 2.1 µM; in the assay on K-562 leukemia, 5.13 µM; in the assay with OVCAR-5 ovarian, 4.11 µM; in the assay on SF-295 CNS, 6.98 µM. Moreover, the TGI turned out to be 4.79 µM in the assay with KM12 colon, 2.11 µM in the assay with RXF 393 renal, 3.26 µM in the assay on NCI-H226 lung and 3.34 µM in the assay with MALME-3M melanoma.
For `COc1ccc(-c2nsc3c2NC(=O)CC3c2ccc3c(c2)OCCO3)cc1` (centres undefined), the GI50 was 0.398 µM with HS 578T breast; 0.504 µM in the assay on HCT-15 colon; 2.19 µM with UO-31 renal; 0.367 µM with K-562 leukemia; 10.2 µM in the assay with OVCAR-5 ovarian; 0.434 µM in the assay with SF-295 CNS. Also, the GI50 in the assay with KM12 colon was 0.521 µM; with RXF 393 renal, 0.629 µM; with NCI-H226 lung, 5.19 µM; with MALME-3M melanoma, 0.336 µM. Besides, the TGI in the assay on HS 578T breast is above 100 µM; in the assay with HCT-15 colon, above 100 µM; with UO-31 renal it was above 100 µM; in the assay with K-562 leukemia, above 100 µM; with OVCAR-5 ovarian, above 100 µM; with SF-295 CNS, above 33.2 µM. The TGI in the assay with KM12 colon was above 100 µM; in the assay on NCI-H226 lung, above 26.6 µM; in the assay with MALME-3M melanoma, above 100 µM.
On to `O=C1NCN(c2ccccc2)C12CCN(CCCC(c1ccc(F)cc1)c1ccc(F)cc1)CC2`, for which the GI50 is 2.17 µM in the assay on HS 578T breast; 2.09 µM in the assay on HCT-15 colon; 1.28 µM in the assay on UO-31 renal; 1.71 µM in the assay on K-562 leukemia; 3.76 µM in the assay on OVCAR-5 ovarian; 1.5 µM in the assay with SF-295 CNS. Besides, the GI50 with KM12 colon is 2.14 µM; in the assay on RXF 393 renal, 1.72 µM; in the assay on NCI-H226 lung, 7.36 µM; in the assay with MALME-3M melanoma, 1.66 µM. The TGI in the assay on HS 578T breast worked out at 6.51 µM; with HCT-15 colon it was 4.71 µM; with UO-31 renal, 3.96 µM; in the assay on K-562 leukemia it was 4.11 µM; in the assay on OVCAR-5 ovarian, 16.4 µM; in the assay with SF-295 CNS it was 3.1 µM. The TGI in the assay on KM12 colon is 4.38 µM; in the assay on RXF 393 renal, 4.37 µM; in the assay on NCI-H226 lung, 35.5 µM; with MALME-3M melanoma, 3.46 µM.
As to `C[C@]12CC[C@@H]3c4ccc(O)cc4CC[C@H]3[C@@H]1CC[C@@H]2NS(=O)(=O)c1cccc(Cl)c1`, the GI50 was 3.09 µM in the assay with HS 578T breast; 2.28 µM in the assay with HCT-15 colon; 2.01 µM with UO-31 renal; 3.14 µM in the assay with K-562 leukemia; 2.59 µM in the assay on OVCAR-5 ovarian; 3.1 µM with SF-295 CNS. Also, the GI50 in the assay with KM12 colon was 1.96 µM; in the assay on RXF 393 renal it was 1.91 µM; in the assay with NCI-H226 lung it was 1.9 µM; with MALME-3M melanoma, 2.36 µM. Also, the TGI with HS 578T breast was determined as 13.1 µM; in the assay on HCT-15 colon it was 7.2 µM; with UO-31 renal, 8.75 µM; with K-562 leukemia, 11.8 µM; in the assay on OVCAR-5 ovarian, 8.54 µM; with SF-295 CNS it was 10.8 µM. The TGI with KM12 colon is 4.24 µM; in the assay with RXF 393 renal it was 4.9 µM; in the assay on NCI-H226 lung, 4.61 µM; in the assay with MALME-3M melanoma, 6.75 µM.
On to `O=C(Nc1ccc2ncnc(Nc3ccc(Oc4cccc(F)c4)c(Cl)c3)c2c1)c1ccc(CN2CCOCC2)cc1`, for which the GI50 in the assay with HS 578T breast was 1.96 µM; in the assay with HCT-15 colon it was 2.49 µM; with UO-31 renal, 1.81 µM; in the assay on K-562 leukemia, 2.47 µM; in the assay with OVCAR-5 ovarian, 4.5 µM; in the assay on SF-295 CNS, 2.66 µM. The GI50 in the assay on KM12 colon was 2.57 µM; in the assay on RXF 393 renal, 2.02 µM; with NCI-H226 lung, 5.12 µM; with MALME-3M melanoma it was 2.01 µM. The TGI is 7.04 µM with HS 578T breast; 8.85 µM in the assay with HCT-15 colon; 8.59 µM in the assay with UO-31 renal; 11.7 µM in the assay on K-562 leukemia; 23.4 µM in the assay on OVCAR-5 ovarian; 10.3 µM in the assay with SF-295 CNS. For the same molecule, the TGI in the assay with KM12 colon is 7.66 µM; in the assay on RXF 393 renal it was 5.83 µM; with NCI-H226 lung it was 33.7 µM; in the assay with MALME-3M melanoma, 5.2 µM.
For the molecule `COc1ccc(OC)c(NC(=O)c2cccc(NC3=C(Cl)C(=O)N(Cc4ccccc4)C3=O)c2)c1`, the GI50 was above 100 µM in the assay on HS 578T breast; above 100 µM with HCT-15 colon; above 90.3 µM in the assay on UO-31 renal; 35.4 µM in the assay with K-562 leukemia; above 73 µM with OVCAR-5 ovarian; above 75.3 µM in the assay with SF-295 CNS. The GI50 is above 100 µM in the assay with KM12 colon, above 74.6 µM in the assay with RXF 393 renal, above 67.3 µM in the assay with NCI-H226 lung and above 49.3 µM with MALME-3M melanoma. For the same molecule, the TGI with HS 578T breast, in the assay with HCT-15 colon, in the assay on UO-31 renal, in the assay with K-562 leukemia, with OVCAR-5 ovarian and with SF-295 CNS was above 100 µM in each case. The TGI was above 100 µM with KM12 colon, above 100 µM in the assay on RXF 393 renal, above 100 µM in the assay with NCI-H226 lung and above 86.4 µM in the assay with MALME-3M melanoma.
With `Cc1cc2c(cc1C)[n+](=O)c(C(=O)/C=C/c1ccc3c(c1)OCO3)c(C)n2[O-]`, the TGI was 64 µM in the assay on HS 578T breast; above 100 µM in the assay with HCT-15 colon; above 100 µM in the assay with UO-31 renal; above 100 µM in the assay with K-562 leukemia; above 100 µM in the assay on OVCAR-5 ovarian; 50 µM in the assay with SF-295 CNS. Further, the TGI in the assay with KM12 colon was above 100 µM; in the assay on RXF 393 renal, 66.6 µM; in the assay with NCI-H226 lung, above 100 µM; in the assay on MALME-3M melanoma, above 100 µM.
